Where two headings read alike, the source gives them in different places.
Legend:
[1] = target: T1, rhinovirus 3C protease from HRV serotype-14 (Human rhinovirus 14, UniProt P03303); assay: Inhibition of rhinovirus 3C protease (FRET assay), serotype 14; format: biochemical; conditions: HRV serotype-14 3C protease, progress curves in enzyme start experiments; for kinact/KI: read-out: Protease Inhibition kobs/[I]
T1 construct: Recombinant rhinovirus 3C proteases; made in house
Experimental: Stock solutions (50 mM, in DMSO) of various compounds were prepared; dilutions were in the same solvent. Recombinant rhinovirus 3C proteases (see Birch et al., “Purification of recombinant human rhinovirus 14 3C protease expressed in Escherichia coli,” Protein Expr. Pur. 1995, 6(5), 609-618) from serotypes 14, 16, and 2 were prepared by the following standard chromatographic procedures: (1) ion exchange using Q Sepharose Fast Flow from Pharmacia; (2) affinity chromatography using Affi-Gel Blue from Biorad; and (3) sizing using Sephadex G-100 from Pharmacia. Each assay sample contained 2% DMSO, 50 mM tris pH 7.6, 1 mM EDTA, a test compound at the indicated concentration, approximately 1 μM substrate, and 50-100 nM protease. The kobs/I values were obtained from reactions initiated by addition of enzyme rather than substrate. RVP activity was measured in the fluorescence resonance energy transfer assay. The substrate was (N-terminal) DABCYL-(Gly-Arg-Ala-Val-Phe-Gln-Gly-Pro-Val-Gly)-EDANS. In the uncleaved peptide, the EDANS fluorescence was quenched by the proximal DABCYL moiety. When the peptide was cleaved, the quenching was relieved, and activity was measured as an increase in fluorescence signal. In Table 1, all data are for rhinovirus 3C protease from HRV serotype-14 (produced from the infectious cDNA clone constructed by Dr. Robert Rueckert, Institute for Molecular Virology, University of Wisconsin, Madison, Wis.). […] The data in the column designated kobs/[I] were measured from progress curves in enzyme start experiments.

HRV-14 = assay: Antirhinoviral H1-HeLa cell culture assay, HRV-14; format: cell-based, human rhinovirus; conditions: HRV serotype-14, H1-HeLa cells
Experimental: In this cell protection assay, the ability of compounds to protect cells against HRV infection was measured by the XTT dye reduction method, which is described in Weislow et al., J. Natl. Cancer Inst. 1989, vol. 81, 577-586.
(§1) H1-HeLa cells were infected with HRV-14 at a multiplicity of infection (m.o.i.) of 0.13 (virus particles/cell) or mock-infected with medium only. Infected or mock-infected cells were resuspended at 8×10^5 cells per mL, and incubated with appropriate concentrations of the compounds to be tested. Two days later, XTT/PMS was added to test plates and the amount of formazan produced was quantified spectrophotometrically at 450/650 nm. The EC50 value was calculated as the concentration of compound that increased the percentage of formazan production in compound-treated, virus-infected cells to 50% of that produced by compound-free, mock-infected cells. The 50% cytotoxic dose (CC50) was calculated as the concentration of compound that decreased the percentage of formazan produced in compound-treated, mock-infected cells to 50% of that produced by compound-free, mock-infected cells. The therapeutic index (TI) was calculated by dividing the CC50 value by the EC50 value.
(§2) All strains of human rhinovirus (HRV) for use in this assay were purchased from American Type Culture Collection (ATCC), except for HRV serotype-14 (produced from the infectious cDNA clone constructed by Dr. Robert Rueckert, Institute for Molecular Virology, University of Wisconsin, Madison, Wis.). HRV stocks were propagated and viral assays were performed in H1-HeLa cells (ATCC). Cells were grown in minimal essential medium with 10% fetal bovine serum, available from Life Technologies (Gaithersburg, Md.).
The compounds were tested against control compounds WIN 51711, WIN 52084, and WIN 54954 (obtained from Sterling-Winthrop Pharmaceuticals), Pirodavir (obtained from Janssen Pharmaceuticals), and Pleconaril (prepared according to the method described in Diana et al., J. Med. Chem 1995, vol. 38, 1355). Antiviral data obtained for the test compounds are shown in Tables 1 and 3, where all data are for HRV serotype-14 unless otherwise noted in parentheses.

[2] = Cytotoxicity in mock-infected H1-HeLa cells (antirhinoviral assay, XTT); format: cell-based; conditions: human, 50% cytotoxic dose, two days
Experimental: as §1, §2

[3] = Rhinovirus B, HRV14, H1-HeLa, Table 1, XTT dye reduction, read-out: Cell Protection EC50
[4] = Rhinovirus B, HRV14, H1-HeLa, Table 3, XTT, read-out: EC50

T1 sequence (P03303 1538-1719): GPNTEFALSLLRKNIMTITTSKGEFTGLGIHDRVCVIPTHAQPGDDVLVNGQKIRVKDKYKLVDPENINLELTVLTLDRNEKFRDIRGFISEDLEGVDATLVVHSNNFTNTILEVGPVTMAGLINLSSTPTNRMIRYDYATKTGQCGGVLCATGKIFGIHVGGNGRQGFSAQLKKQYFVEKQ

Compound	kinact/KI [1]	EC50 (HRV-14; [3])	EC50 (HRV-14; [4])	CC50 at 2 days [2]	Protease Inhibition kobs/[I] [1]	EC50 (HRV-14; Table 1, XTT dye reduction, read-out: Cell Protection EC50)	EC50 (HRV-14; Table 3, XTT, read-out: EC50)
CC(C)[C@H](NC(=O)C1SCCS1)C(=O)N[C@@H](Cc1ccc(F)cc1)C(=O)N[C@H](/C=C/C(=O)OCc1cccnc1)CCC(N)=O [Compound A-18]	292000 M⁻¹ s⁻¹	1500 nM	1500 nM	> 100000 nM	–	–	–
CCOC(=O)/C=C/[C@H](CCC(N)=O)NC(=O)[C@H](Cc1ccc(F)cc1)OC(=O)[C@@H](NC(=O)c1cc(C)on1)C(C)C [Compound C-1, Ethyl-3-{(5′-Methylisoxazole-3′-carbonyl)-L-Val-O-L-(4-F-Phe)-L-Gln}-E-Propenoate]	68400 M⁻¹ s⁻¹	100 nM	100 nM	–	–	–	–
Ethyl-3-((5′-Methylisoxazole-3′-carbonyl)-L-Leu-NCH3-L-Phe-L-Gln)-E-Provenoate [Compound A-10]	–	–	–	–	108,000 M^−1sec^−1	140 nM	140 nM
CCOC(=O)/C=C/[C@H](CCC(N)=O)NC(=O)[C@H](Cc1ccccc1)NC(=O)[C@H](CC(C)C)NC(=O)c1cc(C)[nH]n1 [Compound A-22]	2400 M⁻¹ s⁻¹	–	–	–	–	–	–
CCOC(=O)/C=C/[C@H](C[C@@H]1CCNC1=O)NC(=O)[C@H](Cc1ccccc1)NC(=O)[C@@H](NC(=O)OCc1ccccc1)C(C)C [Compound A-25, Ethyl-3-{Cbz-L-Val-L-Phe-L-((S)-Pyrrol-Ala)}-E-Propenoate]	500000 M⁻¹ s⁻¹	30 nM	30 nM	–	–	–	–
CCOC(=O)/C=C/[C@H](CCC(N)=O)NC(=O)[C@H](Cc1ccccc1)NC(=O)[C@H](CC(C)C)NC(=O)c1nc(C)c[nH]1 [Compound A-21]	17800 M⁻¹ s⁻¹	2500 nM	2500 nM	> 100000 nM	–	–	–
CCOC(=O)/C=C/[C@H](CCC(N)=O)NC(=O)[C@H](Cc1ccccc1)NC(=O)[C@@H](NC(=O)c1cccs1)C(C)(C)C [Compound A-14]	54500 M⁻¹ s⁻¹	480 nM	480 nM	> 100000 nM	–	–	–
CCOC(=O)/C=C/[C@H](C[C@@H]1CCCNC1=O)NC(=O)[C@H](Cc1ccc(F)cc1)NC(=O)[C@@H](NC(=O)c1cc(C)on1)C(C)C [Compound A-8, Ethyl-3-[(5′-Methylisoxazole-3′-carbonyl)-L-Val-L-(4-F-Phe)-L-((S)-Piper-Ala)}-E-Propenoate]	900000 M⁻¹ s⁻¹	–	–	–	–	–	–
CCOC(=O)/C=C/[C@H](CCC(N)=O)NC(=O)[C@H](Cc1ccccc1)NC(=O)[C@H](CC(C)C)NC(=O)c1cc(C)cs1 [Compound A-23]	26000 M⁻¹ s⁻¹	–	–	–	–	–	–
CCOC(=O)/C=C/[C@H](CCC(N)=O)NC(=O)[C@H](Cc1ccc(F)cc1)N(C)C(=O)[C@H](CC(C)C)NC(=O)c1cc(C)on1 [Compound A-12, Ethyl-3-{(5′-Methylisoxazole-3′-carbonyl)-L-Leu-NCH3-L-(4-F-Phe)-L-Gln}-E-Propenoate]	59300 M⁻¹ s⁻¹	400 nM	400 nM	–	–	–	–
CCOC(=O)/C=C/[C@H](CCC(N)=O)NC(=O)[C@H](Cc1ccc(F)cc1)N(C)C(=O)[C@H](Cc1c[nH]cn1)NC(=O)c1cc(C)on1 [Compound A-9, Ethyl-3-{(5′-Methylisoxazole-3′-carbonyl)-L-His-NCH3-L-(4-F-Phe)-L-Gln}-E-Propenoate]	66000 M⁻¹ s⁻¹	1800 nM	1800 nM	–	–	–	–
CCOC(=O)/C=C/[C@H](CCC(N)=O)NC(=O)[C@H](Cc1ccc(C)cc1)NC(=O)[C@@H](NC(=O)c1cc(C)on1)C(C)(C)C [Compound A-3, Ethyl-3-((5′-Methylisoxazole-3′-carbonyl)-L-α-(t-Butyl-Gly)-L-(4-Me-Phe)-L-Gln)-E-Propenoate]	310000 M⁻¹ s⁻¹	50 nM	50 nM	–	–	–	–
CCOC(=O)/C=C/[C@H](CCC(N)=O)NC(=O)[C@H](Cc1ccc(F)cc1)N(C)C(=O)[C@H](Cc1cccc2ccccc12)NC(=O)c1cc(C)on1 [Compound A-13, Ethyl-3-{(5′-Methylisoxazole-3′-carbonyl)-L-(1-Naphth)-NCH3-L-(4-F-Phe)-L-Gln}-E-Propenoate]	95800 M⁻¹ s⁻¹	200 nM	200 nM	–	–	–	–
CCOC(=O)/C=C/[C@H](CCC(N)=O)NC(=O)[C@H](Cc1ccccc1)NC(=O)[C@H](CC(C)C)NC(=O)c1cc(C)oc1C [Compound A-20]	1020 M⁻¹ s⁻¹	12600 nM	12600 nM	> 100000 nM	–	–	–
Cc1cc(C(=O)N[C@H](C(=O)C[C@@H](Cc2ccc(F)cc2)C(=O)N[C@H](/C=C2\CCOC2=O)C[C@@H]2CCNC2=O)C(C)C)no1 [Compound B-3, 2-{(5′-Methylisoxazole-3′-carbonyl)-L-ValΨ(COCH2)-L-(4-F-Phe)-L-((S)-Pyrrol-Ala)}-E-(α-Vinyl-γ-Butyrolactone)]	465000 M⁻¹ s⁻¹	180 nM	180 nM	–	–	–	–
CCOC(=O)/C=C/[C@H](CCC(N)=O)NC(=O)[C@H](Cc1ccc(F)cc1)NC(=O)[C@@H](NC(=O)c1cc(C)on1)C(C)(C)C [Compound A-4, Ethyl-3-((5′-Methylisoxazole-3′-carbonyl)-L-α-(t-Butyl-Gly)-L-(4-F-Phe)-L-Gln)-E-Provenoate]	270000 M⁻¹ s⁻¹	100 nM	100 nM	–	–	–	–
CC(C)C[C@H](NC(=O)OCc1ccccc1)C(=O)N[C@@H](Cc1ccccc1)C(=O)N[C@H](/C=C/c1ccno1)CCC(N)=O [Comparison Compound #1, 5-(3′-(Cbz-L-Leu-L-Phe-L-Gln)-E-Propene)-isoxazole, reference compound]	573 M⁻¹ s⁻¹	> 320000 nM	> 320000 nM	–	–	–	–
CCOC(=O)/C=C/[C@H](CCC(N)=O)NC(=O)[C@H](Cc1ccc(F)cc1)NC(=O)[C@@H](NC(=O)c1cc(C)on1)C(C)C [Compound A-6, Ethyl-3-[(5′-Methylisoxazole-3′-carbonyl)-L-Val-L-(4-F-Phe)-L-Gln]-E-Propenoate]	248000 M⁻¹ s⁻¹	420 nM	420 nM	–	–	–	–
CCOC(=O)/C=C/[C@H](C[C@H]1CCNC1=O)NC(=O)[C@H](Cc1ccccc1)NC(=O)[C@H](CC(C)C)NC(=O)OCc1ccccc1 [Compound A-27, Ethyl-3-{Cbz-L-Leu-L-Phe-L-((R)-Pyrrol-Ala)}-E-Propenoate]	18000 M⁻¹ s⁻¹	1600 nM	1600 nM	–	–	–	–
CCOC(=O)/C=C/[C@H](C[C@@H]1CCCNC1=O)NC(=O)[C@@H](CC(=O)[C@@H](NC(=O)c1cc(C)on1)C(C)C)Cc1ccc(F)cc1 [Compound B-4, Ethyl-3-[(5′-Methylisoxazole-3′-carbonyl)-L-ValΨ(COCH2)-L-(4-F-Phe)-L-((S)-Piper-Ala)}-E-Propenoate]	500000 M⁻¹ s⁻¹	< 30 nM	< 30 nM	–	–	–	–
CCOC(=O)/C=C/[C@H](C[C@@H]1CCCNC1=O)NC(=O)[C@H](Cc1ccccc1)NC(=O)[C@H](CC(C)C)NC(=O)OCc1ccccc1 [Compound A-26, Ethyl-3-{Cbz-L-Leu-L-Phe-L-((S)-Piper-Ala)}-E-Provenoate]	239000 M⁻¹ s⁻¹	30 nM	30 nM	–	–	–	–
CCOC(=O)/C=C/[C@H](CCC(N)=O)NC(=O)[C@H](Cc1ccc(F)cc1)N(C)C(=O)[C@H](Cc1ccc2ccccc2c1)NC(=O)c1cc(C)on1 [Compound A-11, Ethyl-3-{(5′-Methylisoxazole-3′-carbonyl)-L-(2-Naphth)-NCH3-L-(4-F-Phe)-L-Gln}-E-Propenoate]	108000 M⁻¹ s⁻¹	30 nM	30 nM	–	–	–	–
